Assay results reported in ChEMBL document CHEMBL1156135 (Bioorg Med Chem Lett, 2009).

Assays:
[1] = Antiproliferative activity against human WM266.4 cells expressing b-Raf V600E mutant; assay type: functional, cell-based; conditions: WM 266-4
A-375 = assay: Antiproliferative activity against human A375 cells expressing b-Raf V600E mutant; assay type: functional, cell-based
[2] = biological target: Serine/threonine-protein kinase B-raf (Homo sapiens, UniProt P15056); assay: Inhibition of B-Raf
[3] = Therapeutic index, ratio of IC50 for human Caco-2 cells expressing wild type b-Raf to IC50 for human A375 cells expressing b-Raf V600E mutant; assay type: cell-based; conditions: read-out: Ratio IC50
[4] = Therapeutic index, ratio of IC50 for human Caco-2 cells expressing wild type b-Raf to IC50 for human WM266.4 cells expressing b-Raf V600E mutant; assay type: cell-based; conditions: read-out: Ratio IC50
[5] = Selectivity for B-raf over p38alpha
Caco-2 = assay: Antiproliferative activity against human Caco-2 cells expressing wild type b-Raf; assay type: functional, cell-based

Sequence of Serine/threonine-protein kinase B-raf (P15056 whole entry): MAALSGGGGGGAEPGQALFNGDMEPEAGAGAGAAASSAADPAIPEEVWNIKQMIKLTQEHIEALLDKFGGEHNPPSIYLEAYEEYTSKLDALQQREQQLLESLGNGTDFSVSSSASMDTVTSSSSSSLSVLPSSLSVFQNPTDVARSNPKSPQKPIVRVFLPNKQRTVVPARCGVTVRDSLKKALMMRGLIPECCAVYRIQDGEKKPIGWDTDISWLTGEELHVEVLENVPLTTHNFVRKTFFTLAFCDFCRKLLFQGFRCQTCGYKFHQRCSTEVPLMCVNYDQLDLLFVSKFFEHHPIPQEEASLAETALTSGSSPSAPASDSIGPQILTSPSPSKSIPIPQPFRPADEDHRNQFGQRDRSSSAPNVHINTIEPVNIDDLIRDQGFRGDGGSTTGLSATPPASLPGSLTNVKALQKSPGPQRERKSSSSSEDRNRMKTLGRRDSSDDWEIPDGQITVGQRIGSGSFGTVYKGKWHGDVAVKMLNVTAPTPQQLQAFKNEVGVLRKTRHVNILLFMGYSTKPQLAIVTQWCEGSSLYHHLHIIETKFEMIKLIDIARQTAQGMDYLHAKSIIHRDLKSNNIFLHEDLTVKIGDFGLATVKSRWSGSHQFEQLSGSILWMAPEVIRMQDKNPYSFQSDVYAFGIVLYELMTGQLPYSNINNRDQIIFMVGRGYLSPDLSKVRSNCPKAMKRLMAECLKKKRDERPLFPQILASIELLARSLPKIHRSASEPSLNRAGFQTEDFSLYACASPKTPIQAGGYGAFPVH

Compound: COc1cccc(-c2c(-c3ccncc3)nn3c(C4CC5CCC(C4)N5)ccnc23)c1 (stereo unspecified)
- IC50 [1]: 8400 nM
- IC50 (A-375): 6400 nM

Compound: OCCN1C2CCC1CC(c1ccnc3c(-c4cccc5[nH]ncc45)c(-c4ccncc4)nn13)C2 (stereo unspecified)
- IC50 [1]: 1370 nM
- IC50 (A-375): 3440 nM

Compound: CCOC(=O)N1C2CCC1CC(c1ccnc3c(-c4ccc(Cl)c(O)c4)c(-c4ccncc4)nn13)C2 (stereo unspecified)
- IC50 [1]: 120 nM
- IC50 [2]: < 2 nM

Compound: O=C(O)[C@H]1CCCN1C(=O)N1C2CCC1CC(c1ccnc3c(-c4cccc5[nH]ncc45)c(-c4ccncc4)nn13)C2 (stereo partly specified)
- IC50 [1]: 1860 nM
- IC50 (A-375): 5940 nM
- IC50 [2]: 2.1 nM

Compound: CN(C)C(=O)N1C2CCC1CC(c1ccnc3c(-c4cccc5[nH]ncc45)c(-c4ccncc4)nn13)C2 (stereo unspecified)
- IC50 [1]: 2140 nM
- IC50 (A-375): 3000 nM

Compound: CCN1C2CCC1CC(c1ccnc3c(-c4ccc(Cl)c(O)c4)c(-c4ccncc4)nn13)C2 (stereo unspecified)
- IC50 [1]: 230 nM
- IC50 (A-375): 320 nM
- IC50 [2]: 0.5 nM

Compound: CCN1C2CCC1CC(c1ccnc3c(-c4ccc(F)c(O)c4)c(-c4ccncc4)nn13)C2 (stereo unspecified)
- IC50 [1]: 450 nM
- IC50 (A-375): 760 nM

Compound: CC(=O)N1C2CCC1CC(c1ccnc3c(-c4cccc5[nH]ncc45)c(-c4ccncc4)nn13)C2 (stereo unspecified)
- IC50 [1]: 1800 nM
- IC50 (A-375): 2540 nM

Compound: COc1cc(-c2c(-c3ccncc3)nn3c(C4CC5CCC(C4)N5)ccnc23)ccc1Cl (stereo unspecified)
- IC50 [1]: 3500 nM
- IC50 (A-375): 2600 nM
- IC50 [2]: 8.5 nM

Compound: CCOC(=O)N1C2CCC1CC(c1ccnc3c(-c4ccc(F)c5[nH]ncc45)c(-c4ccncc4)nn13)C2 (stereo unspecified)
- selectivity ratio [3]: 5.8
- IC50 [1]: 300 nM
- IC50 (A-375): 620 nM
- selectivity ratio [4]: 12
- Ratio [5]: 19

Compound: CCOC(=O)N1C2CCC1CC(c1ccnc3c(-c4ccc(F)c(F)c4)c(-c4ccncc4)nn13)C2 (stereo unspecified)
- IC50 [2]: 302 nM

Compound: CCOC(=O)N1C2CCC1CC(c1ccnc3c(-c4cccc5[nH]ccc45)c(-c4ccncc4)nn13)C2 (stereo unspecified)
- IC50 [2]: > 1000 nM

Compound: Oc1cccc(-c2c(-c3ccncc3)nn3c(C4CC5CCC(C4)N5)ccnc23)c1 (stereo unspecified)
- IC50 [1]: 220 nM
- IC50 (A-375): 2250 nM

Compound: CCN1C2CCC1CC(c1ccnc3c(-c4ccc(C)c5[nH]ncc45)c(-c4ccncc4)nn13)C2 (stereo unspecified)
- IC50 [1]: 840 nM
- IC50 (A-375): 1600 nM

Compound: CC(C)N1C2CCC1CC(c1ccnc3c(-c4cccc5[nH]ncc45)c(-c4ccncc4)nn13)C2 (stereo unspecified)
- IC50 [1]: 1750 nM
- IC50 (A-375): 1960 nM

Compound: CCOC(=O)N1C2CCC1CC(c1ccnc3c(-c4ccc(C)c(O)c4)c(-c4ccncc4)nn13)C2 (stereo unspecified)
- IC50 [1]: 230 nM
- IC50 (A-375): 570 nM

Compound: CCN1C2CCC1CC(c1ccnc3c(-c4cccc5[nH]ncc45)c(-c4ccncc4)nn13)C2 (stereo unspecified)
- IC50 [1]: 2400 nM
- IC50 (A-375): 2900 nM
- IC50 [2]: 46.6 nM

Compound: CCOC(=O)N1C2CCC1CC(c1ccnc3c(-c4cccc5[nH]ncc45)c(-c4ccncc4)nn13)C2 (stereo unspecified)
- selectivity ratio [3]: 2.1
- IC50 [1]: 300 nM
- IC50 (Caco-2): 800 nM
- IC50 (A-375): 380 nM
- selectivity ratio [4]: 2.7

Compound: CCN1C2CCC1CC(c1ccnc3c(-c4ccc(C(F)(F)F)c5[nH]ncc45)c(-c4ccncc4)nn13)C2 (stereo unspecified)
- IC50 [1]: 2900 nM
- IC50 (A-375): 1700 nM
- IC50 [2]: 45 nM

Compound: CN1C2CC(S(=O)(=O)c3ccccc3)C1Cc1cnc3c(-c4ccc(Cl)c(O)c4)c(-c4ccncc4)nn3c12 (stereo unspecified)
- IC50 [1]: 600 nM
- IC50 (A-375): 1000 nM
- IC50 [2]: 0.8 nM

Compound: CCOC(=O)N1C2CCC1CC(c1ccnc3c(-c4cccc(OC)c4)c(-c4ccncc4)nn13)C2 (stereo unspecified)
- IC50 [1]: 8000 nM
- IC50 (A-375): 9000 nM

Compound: CCOC(=O)N1C2CCC1CC(c1ccnc3c(-c4cccc5[nH]c(=O)[nH]c45)c(-c4ccncc4)nn13)C2 (stereo unspecified)
- IC50 [2]: > 1000 nM

Compound: CCOC(=O)N1C2CCC1CC(c1ccnc3c(-c4ccc5cc[nH]c5c4)c(-c4ccncc4)nn13)C2 (stereo unspecified)
- IC50 [1]: > 10000 nM
- IC50 (A-375): 7500 nM

Compound: CN1C2CC(CO)C1Cc1cnc3c(-c4ccc(Cl)c(O)c4)c(-c4ccncc4)nn3c12 (stereo unspecified)
- IC50 [1]: 750 nM
- IC50 (A-375): 1700 nM
- IC50 [2]: 0.6 nM

Compound: CCOC(=O)N1C2CCC1CC(c1c(C)cnc3c(-c4cccc5[nH]ncc45)c(-c4ccncc4)nn13)C2 (stereo unspecified)
- IC50 [1]: 1870 nM
- IC50 (A-375): 1220 nM
- IC50 [2]: 8.4 nM

Compound: CCN1C2CCC1CC(c1ccnc3c(-c4ccc(C#N)c(O)c4)c(-c4ccncc4)nn13)C2 (stereo unspecified)
- IC50 [1]: > 10000 nM
- IC50 (A-375): > 10000 nM

Compound: Oc1cc(-c2c(-c3ccncc3)nn3c(C4CC5CCC(C4)N5)ccnc23)ccc1Cl (stereo unspecified)
- IC50 [1]: 90 nM
- IC50 (A-375): 440 nM

Compound: CCOC(=O)N1C2CCC1CC(c1ccnc3c(-c4ccc5c(c4)NC(=O)C5)c(-c4ccncc4)nn13)C2 (stereo unspecified)
- IC50 [2]: > 1000 nM

Compound: CC(=O)N1C2CCC1CC(c1ccnc3c(-c4ccc(Cl)c(O)c4)c(-c4ccncc4)nn13)C2 (stereo unspecified)
- IC50 [1]: 260 nM
- IC50 (A-375): 900 nM

Compound: CCOC(=O)N1C2CCC1CC(c1ccnc3c(-c4ccc(Cl)c5[nH]ncc45)c(-c4ccncc4)nn13)C2 (stereo unspecified)
- selectivity ratio [3]: 9.4
- IC50 [1]: 280 nM
- IC50 (A-375): 580 nM
- selectivity ratio [4]: 19.3
- IC50 [2]: 0.4 nM

Compound: CCNC(=O)N1C2CCC1CC(c1ccnc3c(-c4cccc5[nH]ncc45)c(-c4ccncc4)nn13)C2 (stereo unspecified)
- IC50 [1]: 1520 nM
- IC50 (A-375): 2810 nM

Compound: CCOC(=O)N1C2CCC1CC(c1ccnc3c(-c4ccc(C(F)(F)F)c5[nH]ncc45)c(-c4ccncc4)nn13)C2 (stereo unspecified)
- IC50 [1]: 2300 nM
- IC50 (A-375): 2500 nM
- IC50 [2]: 4.4 nM

Compound: CCOC(=O)N1C2CCC1CC(c1ccnc3c(-c4ccc(-c5nnco5)cc4)c(-c4ccncc4)nn13)C2 (stereo unspecified)
- IC50 [2]: 151 nM

Compound: CS(=O)(=O)N1C2CCC1CC(c1ccnc3c(-c4cccc5[nH]ncc45)c(-c4ccncc4)nn13)C2 (stereo unspecified)
- IC50 [1]: 570 nM
- IC50 (A-375): 950 nM

Compound: CCN1C2CCC1CC(c1ccnc3c(-c4ccc(Cl)c(OC)c4)c(-c4ccncc4)nn13)C2 (stereo unspecified)
- IC50 [1]: 5600 nM
- IC50 (A-375): 2200 nM

Compound: CCOC(=O)N1C2CCC1CC(c1ccnc3c(-c4cccc(O)c4)c(-c4ccncc4)nn13)C2 (stereo unspecified)
- IC50 [1]: 240 nM

Compound: CS(=O)(=O)C1C2CCC1CC(c1ccnc3c(-c4ccc(Cl)c(O)c4)c(-c4ccncc4)nn13)C2 (stereo unspecified)
- IC50 [1]: 90 nM
- IC50 (A-375): 270 nM
- IC50 [2]: < 2 nM

Compound: CCN1C2CCC1CC(c1ccnc3c(-c4ccc(Cl)c5[nH]ncc45)c(-c4ccncc4)nn13)C2 (stereo unspecified)
- IC50 [1]: 860 nM
- IC50 (A-375): 1090 nM
- IC50 [2]: 4.4 nM

Compound: CCOC(=O)N1C2CCC1CC(c1ccnc3c(-c4ccc(Cl)c(OC)c4)c(-c4ccncc4)nn13)C2 (stereo unspecified)
- IC50 [1]: > 10000 nM

Compound: CCOC(=O)N1C2CCC1CC(c1ccnc3c(-c4ccc(C)c5[nH]ncc45)c(-c4ccncc4)nn13)C2 (stereo unspecified)
- IC50 [1]: 670 nM
- IC50 (A-375): 1000 nM

Compound: COC(=O)C1CC2c3c(cnc4c(-c5ccc(Cl)c(O)c5)c(-c5ccncc5)nn34)CC1N2C (stereo unspecified)
- IC50 [1]: 1100 nM
- IC50 (A-375): 2300 nM
- IC50 [2]: 1.6 nM
